Measurements published in patent US12281118B2, “Nitrogen-containing fused heterocyclic SHP2 inhibitor compound, preparation method, and use” (SHANGHAI RINGENE BIOPHARMA CO., LTD., priority 2018, dated 2025).

What was measured:
Assay in all cases: Growth inhibition of xenograft in nude mice
Format in all cases: in vivo
Details in all cases: orally, once daily, for 21 consecutive days
[1] = system: MV 4-11 tumor cell xenograft
Excerpt: (§1) Experimental method: 1) Culturing MV 4-11/KYSE520/NCI-H358 cells in a culture medium containing 10% fetal bovine serum. Harvesting tumor cells at an exponential growth phase, and resuspending in PBS to suitable concentrations for subcutaneous tumor inoculation in nude mice. 2) Subcutaneously inoculating 2-8×10^7 tumor cells at the right back of a mouse, and resuspending the cells in PBS and matrigel (1:1); observing tumor growth regularly, and randomizing mice for administration based on tumor size and mouse body weight when tumors grow to a mean volume of ˜120 mm^3-[…]. 3) Defining the day of tumor cell inoculation as Day 0. Prior to the start of dosing, weighing all animals and measuring the tumor volume with a vernier caliper. 3) Administering orally compound of examples (prepared with water for injection containing 1% Tween80 to a desired concentration for use) at a given dose for three consecutive weeks, and giving an equal amount of solvent animals in a solvent control group. Measuring diameters of the xenograft twice a week throughout the experiment, and weighing the mice were at the same time.
(§2) The calculation formula of tumor volume (TV) is: TV=½×a×b^2, wherein a and b represent length and width, respectively. The relative tumor volume (RTV) is calculated based on the measured results using the formula: RTV=Vt/V0, wherein V0 is the tumor volume measured at the time of dosing in separate cages (i.e., Day 0) and Vt is the tumor volume at each measurement. The anti-tumor activity is evaluated by the following measures: 1) relative tumor proliferation rate T/C (%), which is calculated by the following formula: T/C (%)=(TRTV/CRTV)×100%, wherein TRTV: RTV of ae treatment group; CRTV: RTV of a negative control group; 2) inhibition rate of tumor volume growth GI %, which is calculated by the following formula: GI %=[1−(TVt−TV0)/(CVt−[…])]×100%, wherein TVt is the tumor volume at each measurement in the treatment group; TV0 is the tumor volume obtained at the time of dosing in separate cages in the treatment group; CVt is the tumor volume at each measurement in the control group; CV0 is the tumor volume obtained at the time of dosing in separate cages in the control group (specific data are shown in Table 4).

[2] = system: KYSE520 tumor cell xenograft
Excerpt: as §1, §2

[3] = system: NCI-H358 tumor cell xenograft
Excerpt: as §1, §2

Cc1nc(N2CCC3(CC2)Cc2ccccc2[C@H]3N)n2ccnc2c1Sc1ccnc(N)c1Cl [Example 1, (S)-1′-(8-((2-amino-3-chloropyridin-4-yl)thio)-7-methylimidazo [1,2-c]pyrimidin-5-yl)-1,3-dihydrospiro [indene-2,4′-piperidine]-1-amine]
T/C ([1]; 2 mg/kg): 28%
T/C ([1]; 5 mg/kg): 3.0%
T/C ([2]; 2 mg/kg): 30%
T/C ([2]; 6 mg/kg): 18%
T/C ([3]; 0.8 mg/kg): 39%
T/C ([3]; 2.5 mg/kg): 13%
